How the values were obtained:
[1] = Stability in PBS at 37 °C (radio-HPLC / LC-MS); format: physicochemical; settings: for Stability (% ± SD) PBS 1 h / Stability (% ± SD) PBS 4 h / Stability (% ± SD) PBS 24 h: % intact labeled ligand, 37 °C; for degradation: up to 24 h of incubation
Method: (§1) For the stability assessment of eFAP-6, [^111In]In-eFAP-6 or [^177Lu]Lu-eFAP-6 (~ 3–7 MBq, 20 µL) was mixed with 180 µL of PBS (0.01 M, pH 7.4) and incubated at 37 °C for up to 24 h. A sample of the PBS solution was directly injected on the radio-HPLC at 1, 4, and 24 h after incubation. Additionally, [^111In]In-eFAP-6 and [^177Lu]Lu-eFAP-6 (5–15 MBq, 50 µL) were incubated with 350 µL of commercially acquired mouse or human serum (Biolegend; San Diego, CA, USA) at 37 °C for up to 24 h. Following 1, 4, and 24 h of incubation, 50 µL of the solution were mixed with 50 µL of acetonitrile in an Eppendorf tube, and centrifuged at 5000× g for 20 min. The supernatant was then analyzed by radio-HPLC. Stability studies of eFAP-7 were performed by incubation of eFAP-7 (50 µL, 10^− 4 M) in 450 µL PBS or serum at 37 °C for up to 24 h. After 1, 4, and 24 h of incubation, 50 µL of the PBS incubation solution were directly analyzed by liquid chromatography-mass spectrometry (LC-MS), while 50 µL of the serum solution was mixed with 50 µL of acetonitrile in an Eppendorf tube, and centrifuged at 5000× g for 20 min, followed by LC-MS analyses.

[2] = Stability in human serum at 37 °C (radio-HPLC / LC-MS); format: in vitro ADME; settings: for Stability (% ± SD) Human serum 1 h / Stability (% ± SD) Human serum 4 h / Stability (% ± SD) Human serum 24 h: % intact labeled ligand, 37 °C; for degradation: human serum (HS), up to 24 h of incubation
Method: as §1

[3] = test system: HT1080-huFAP and HT1080-WT tumor-bearing mice; assay: Ex vivo biodistribution study in tumor-bearing mice; settings: for Biodistribution Bone: femur; for Biodistribution Bone / Biodistribution Blood / Biodistribution Cecum / Biodistribution Colon / Biodistribution Heart / Biodistribution Kidneys / Biodistribution Liver / Biodistribution Lungs / Biodistribution Muscle / Biodistribution Pancreas / Biodistribution Salivary glands / Biodistribution Small intestines / Biodistribution Stomach / Biodistribution Tumor HT1080-WT / Biodistribution Tumor HT1080-huFAP: i.v., 2.6 MBq/200 pmol; for Biodistribution GI Tract: stomach, small intestines, cecum and colon combined
Text: All animal experiments were approved by the Erasmus MC Animal Welfare Committee and were in accordance with European law. Five-week-old male NMRI-Foxn1 nu/nu mice (Janvier; Le Genest-Saint-Isle, France) were housed in individually ventilated cages with a maximum of three mice per cage. After one week of acclimatization, mice were subcutaneously inoculated with HT1080-huFAP on the right shoulder and HT1080-WT on the left shoulder (2.5 × 10^6 cells in Hank’s Balanced Salt Solution (Gibco)). Tumors were allowed to grow for 10 days, resulting in tumor sizes of 537 ± 269 mm^3 and 305 ± 190 mm^3 for HT1080-huFAP and HT1080-WT, respectively, at the start of the experiment. The animals received 200 µL of [^177Lu]Lu-eFAP-6 (n=3/4 per group) or [^177Lu]Lu-FAPI-46 (n=3/4 per group) (2.6 MBq/200 pmol) by intravenous injection through the tail vein, andat 1, 4, and 24 h p.i. biodistribution studies were performed. Blood was collected by orbital puncture under isoflurane/O2 anesthesia, immediately followed by cervical dislocation. Hereafter the two tumor xenografts, pancreas, liver, GI-tract (stomach, small intestine, cecum, colon), kidneys (left and right), lungs, heart, salivary glands, muscle, and bone (femur), were collected, weighed, and measured in a y-counter (PerkinElmer), alongside 10 µL of the injected activity as standard. The results are expressed as the percentage injected dose per gram (% ID/g).
All statistical analyses were performed with GraphPad Prism version 9.0 (San Diego, California USA). All IC50 values were determined using a non-linear regression Log(inhibitor) vs. response analysis with variable slope (four parameters). For the in vivo results outliers were identified by a ROUT test (Q = 1%) and excluded. Next, a two-tailed student’s t-test was performed (*p < 0.05, **p < 0.01, ***p < 0.001). All experiments were performed in triplicate and repeated at least three times.

[4] = Stability in mouse serum at 37 °C (radio-HPLC / LC-MS); format: in vitro ADME; settings: for Stability (% ± SD) Mouse serum 1 h / Stability (% ± SD) Mouse serum 4 h / Stability (% ± SD) Mouse serum 24 h: % intact labeled ligand, 37 °C; for degradation: mouse serum (MS), up to 24 h of incubation
Method: as §1

[5] = LogD7.4 shake-flask method (n-octanol/PBS); format: physicochemical; settings: n-octanol/PBS pH 7.4, shake-flask
Method: The distribution coefficients (LogD7.4) were determined using a shake-flask method, in which 2 µL (~ 0.5 MBq) of [^111In]In-eFAP-6 or 10 µL of eFAP-7 (10^− 4 M) was added to an Eppendorf tube containing 1 mL of PBS (0.01 M, pH 7.4) and n-octanol (v/v, 1:1). After vigorous vortexing, the solution was centrifuged at 2500× g for 15 min for phase separation. For radiolabeled eFAP-6, samples (3 × 10 µL) of the octanol and aqueous phases were taken out and measured in a 1480 Wizard automatic γ-counter (PerkinElmer; Groningen, The Netherlands). LogD7.4 values were calculated by using the following equation: LogD7.4 = log [(counts in octanol phase)/(counts in aqueous phase)]. For eFAP-7, samples (50 µL) of the octanol and aqueous phases were taken out and measured by LC-MS. LogD7.4 values were calculated by using the following equation: LogD7.4 = log [(area in octanol phase)/(area in aqueous phase)].

HT1080-huFAP cells = assay: Radiotracer uptake assay in FAP-expressing cells; format: cell-based, human
Method: Cell experiments were performed with the human sarcoma HT1080 cell line, stably transduced with human FAP (HT1080-huFAP) which were kindly provided by Prof. Dr. Uwe Haberkorn from the University of Heidelberg. The wild type HT1080 (ATTC), hereafter HT080-WT, was used as a negative control. Additionally, the pancreatic stellate cells PS-1, obtained from Queen Mary University, were used as an endogenously FAP expressing cell line. HT1080-huFAP and HT1080-WT cells were cultured in DMEM Glutamax© (Gibco; Breda, The Netherlands) and the PS-1 cells were cultured in RPMI (Gibco). Both media were supplemented with 10% FBS (Gibco), 100 UI/mL penicillin, and 100 µg/mL streptomycin (Merck Life Science NV; Amsterdam, The Netherlands). All cell lines were regularly passaged at 80% confluence and cultured at 37 °C, 5% CO2.
In vitro displacement studies of eFAP-6 and eFAP-7, as well as specificity and uptake assays, were performed using HT0180-huFAP cells. One day prior to the assay 100,000 cells were seeded in a 12-well plate in triplicate. […] For the uptake assay, the cells were incubated with 1 nM [^111In]In-eFAP-6 or [^111In]In-FAPI-46 for different time points (5–120 min) in the presence and absence of 1 mM UAMC-1110 to determine the specificity of^111 radiotracer binding. In both assays, the cells were washed twice with PBS after incubation and were subsequently lysed using 1 M NaOH for 20 min. The cell lysates were collected and radioactivity was measured in a γ-counter (PerkinElmer), simultaneously with 100 µL of the radioactive incubation medium as a standard. Cells in separate wells were collected with Trypsin-EDTA (Gibco) for counting by the automated Countess II cell counter (Thermo Fisher Scientific; Bleiswijk, The Netherlands). Uptake was expressed as percentage added activity per 200,000 cells (% AA/200,000 cells), and specific uptake was corrected by subtracting the uptake measured in the block wells.

N#C[C@@H]1CC(F)(F)CN1C(=O)CNC(=O)c1ccnc2c(OCCCNC(=O)CN3CCN(CC(=O)[O-])CCN(CC(=O)[O-])CCN(CC(=O)[O-])CC3)cccc12.[177Lu+3] [[^177Lu]Lu-eFAP-6]
Stability (% ± SD) PBS 1 h [1]: 97.6 ± 1.1%
Stability (% ± SD) PBS 4 h [1]: 97.3 ± 0.4%
Stability (% ± SD) PBS 24 h [1]: 94.9 ± 0.6%
degradation [1]: less than 5%
Stability (% ± SD) Human serum 1 h [2]: 99.5 ± 0.0%
Stability (% ± SD) Human serum 4 h [2]: 99.5 ± 0.0%
Stability (% ± SD) Human serum 24 h [2]: 98.1 ± 0.3%
degradation [2]: less than 5%
Biodistribution Bone ([3]; 1 h p.i.): 1,80 ± 0,44 %ID/g
Biodistribution Blood ([3]; 1 h p.i.): 0,38 ± 0,08 %ID/g
Biodistribution Cecum ([3]; 1 h p.i.): 0,36 ± 0,01 %ID/g
Biodistribution Colon ([3]; 1 h p.i.): 0,19 ± 0,05 %ID/g
Biodistribution Heart ([3]; 1 h p.i.): 0,15 ± 0,04 %ID/g
Biodistribution Kidneys ([3]; 1 h p.i.): 2,46 ± 0,83 %ID/g
Biodistribution Liver ([3]; 1 h p.i.): 2,32 ± 0,43 %ID/g
Biodistribution Lungs ([3]; 1 h p.i.): 0,33 ± 0,08 %ID/g
Biodistribution Muscle ([3]; 1 h p.i.): 0,19 ± 0,03 %ID/g
Biodistribution Pancreas ([3]; 1 h p.i.): 0,25 ± 0,02 %ID/g
Biodistribution Salivary glands ([3]; 1 h p.i.): 0,56 ± 0,08 %ID/g
Biodistribution Small intestines ([3]; 1 h p.i.): 0,33 ± 0,34 %ID/g
Biodistribution Stomach ([3]; 1 h p.i.): 0,33 ± 0,32 %ID/g
Biodistribution Tumor HT1080-WT ([3]; 1 h p.i.): 0,50 ± 0,11 %ID/g
Biodistribution Tumor HT1080-huFAP ([3]; 1 h p.i.): 6,44 ± 1,09 %ID/g
Biodistribution Bone ([3]; 4 h p.i.): 1,27 ± 0,24 %ID/g
Biodistribution Blood ([3]; 4 h p.i.): 0,22 ± 0,07 %ID/g
Biodistribution Cecum ([3]; 4 h p.i.): 0,32 ± 0,08 %ID/g
Biodistribution Colon ([3]; 4 h p.i.): 0,14 ± 0,03 %ID/g
Biodistribution Heart ([3]; 4 h p.i.): 0,10 ± 0,03 %ID/g
Biodistribution Kidneys ([3]; 4 h p.i.): 1,11 ± 0,21 %ID/g
Biodistribution Liver ([3]; 4 h p.i.): 2,87 ± 1,18 %ID/g
Biodistribution Lungs ([3]; 4 h p.i.): 0,15 ± 0,03 %ID/g
Biodistribution Muscle ([3]; 4 h p.i.): 0,16 ± 0,06 %ID/g
Biodistribution Pancreas ([3]; 4 h p.i.): 0,18 ± 0,06 %ID/g
Biodistribution Salivary glands ([3]; 4 h p.i.): 0,41 ± 0,14 %ID/g
Biodistribution Small intestines ([3]; 4 h p.i.): 0,12 ± 0,04 %ID/g
Biodistribution Stomach ([3]; 4 h p.i.): 0,11 ± 0,04 %ID/g
Biodistribution Tumor HT1080-WT ([3]; 4 h p.i.): 0,36 ± 0,11 %ID/g
Biodistribution Tumor HT1080-huFAP ([3]; 4 h p.i.): 5,92 ± 1,63 %ID/g
Biodistribution GI Tract ([3]; 4 h p.i.): 0,17 ± 0,05 %ID/g
Biodistribution Bone ([3]; 24 h p.i.): 0,19 ± 0,01 %ID/g
Biodistribution Blood ([3]; 24 h p.i.): 0,01 ± 0,00 %ID/g
Biodistribution Cecum ([3]; 24 h p.i.): 0,03 ± 0,00 %ID/g
Biodistribution Colon ([3]; 24 h p.i.): 0,02 ± 0,01 %ID/g
Biodistribution Heart ([3]; 24 h p.i.): 0,01 ± 0,00 %ID/g
Biodistribution Liver ([3]; 24 h p.i.): 1,67 ± 1,07 %ID/g
Biodistribution Lungs ([3]; 24 h p.i.): 0,01 ± 0,00 %ID/g
Biodistribution Muscle ([3]; 24 h p.i.): 0,01 ± 0,00 %ID/g
Biodistribution Pancreas ([3]; 24 h p.i.): 0,01 ± 0,00 %ID/g
Biodistribution Salivary glands ([3]; 24 h p.i.): 0,02 ± 0,00 %ID/g
Biodistribution Small intestines ([3]; 24 h p.i.): 0,02 ± 0,00 %ID/g
Biodistribution Stomach ([3]; 24 h p.i.): 0,02 ± 0,01 %ID/g
Biodistribution Tumor HT1080-WT ([3]; 24 h p.i.): 0,06 ± 0,01 %ID/g
Biodistribution GI Tract ([3]; 24 h p.i.): 0,02 ± 0,00 %ID/g
Stability (% ± SD) Mouse serum 1 h [4]: 99.3 ± 1.2%
Stability (% ± SD) Mouse serum 4 h [4]: 99.5 ± 0.5%
Stability (% ± SD) Mouse serum 24 h [4]: 98.1 ± 0.4%
degradation [4]: less than 5%

N#C[C@@H]1CC(F)(F)CN1C(=O)CNC(=O)c1ccnc2c(OCCCNC(=O)CN3CCN(CC(=O)[O-])CCN(CC(=O)[O-])CCN(CC(=O)[O-])CC3)cccc12.[111In+3] [[^111In]In-eFAP-6]
LogD7.4 [5]: -3.90 ± 0.03
Stability (% ± SD) PBS 1 h [1]: 93.2 ± 0.5%
Stability (% ± SD) PBS 4 h [1]: 93.1 ± 0.6%
Stability (% ± SD) PBS 24 h [1]: 92.3 ± 0.6%
degradation [1]: less than 10%
incubation time at peak uptake (HT1080-huFAP cells; 1 nM radiotracer, 5–120 min): 15 min
peak uptake (HT1080-huFAP cells; 1 nM radiotracer, 5–120 min): 20.8 % AA/200,000 cells
uptake on co-incubation with an excess of UAMC-1110 (block) (HT1080-huFAP cells; 1 mM UAMC-1110, 45 min): negligible uptake
Stability (% ± SD) Human serum 1 h [2]: 91.2 ± 0.1%
Stability (% ± SD) Human serum 4 h [2]: 91.3 ± 0.7%
Stability (% ± SD) Human serum 24 h [2]: 90.4 ± 0.8%
degradation [2]: less than 10%
Stability (% ± SD) Mouse serum 1 h [4]: 92.1 ± 1.2%
Stability (% ± SD) Mouse serum 4 h [4]: 92.1 ± 1.4%
Stability (% ± SD) Mouse serum 24 h [4]: 91.0 ± 0.9%
degradation [4]: less than 10%

— publication PMC11286609, “In vitro and in vivo analyses of eFAP: a novel FAP-targeting small molecule for radionuclide theranostics and other oncological interventions” (EJNMMI Radiopharmacy and Chemistry, 2024)
